Earlier results on two compounds are cited in PMC8538004, “Identification of a Novel Neuropeptide S Receptor Antagonist Scaffold Based on the SHA-68 Core” (Pharmaceuticals, 2021).

The test system of one series is NPSR. On the set-up: method as in PMID 24964000, PMID 20615693, PMID 18337476, PMID 24171469, PMID 20510609. The following applies: Figure 1, known NPSR antagonists; cited from earlier work.
Series [1] deals with NPS-stimulated locomotor activity. On the set-up: method as in PMID 18337476, PMID 20172007. The following applies: dosed at 50 mg/kg, 0.1 nmol of NPS; cited from earlier work.

Molecules are shown by their SMILES.

`O=C(NCc1ccccc1)N1CCN2C(=O)OC(c3ccccc3)(c3ccccc3)C2C1` (stereo not drawn) [SHA-66]: the Ke in the series with NPSR is 10 nM. For the compound `O=C(NCc1ccc(F)cc1)N1CCN2C(=O)OC(c3ccccc3)(c3ccccc3)C2C1` (stereo not drawn) [SHA-68, 3-Oxo-1,1-diphenyl-tetrahydro-oxazolo[3,4-a]pyrazine-7-carboxylic Acid 4-Fluoro-benzylamide], the Ke with NPSR is recorded as 14 nM. Further, in series [1], the “Block of NPS-stimulated locomotor activity” value was “significantly block”.
